Assay results taken from patent US9844656B2, “Localization of agents at a target site with a composition and an energy source” (The Regents of the University of California, priority 2010, dated 2017).

Key:
[1] = system: MET-1^fvb2 mammary carcinoma cells; test: In vitro viability assay (MTT); format: cell-based, mouse; conditions: Met-1 cell line, 72 hours, read-out: IC50 (cytotoxicity)
Experimental: MET-1^fvb2 mammary carcinoma cells were obtained from the Alexander Borowsky Laboratory (UC Davis). MET-1 cells were plated at 2000 cells in 50 μl media per well in 96-well tissue culture plates in high glucose Dulbecco's Modified Eagle's Medium (DMEM, Invitrogen, Carlsbad, Calif.) supplemented with 1% PenStrep and 10% FBS. Cells were given six hours to attach to the plate surface. Treatments were added to each well in 100 μl media and experiments were performed in triplicate. Doxil®, a commercial product of ALZA corporation and manufactured by Centocor Ortho Biotech, was purchased from Cardinal Health Care (Dublin, Ohio) and the in vitro viability was compared with the liposomal copper-doxorubicin.
Plates were incubated for 72 hours at 37° C. in 5% CO2. 3-(4,5-dimethylthiazol-2-yl)-2,5-diphenyltetrazolium bromide (MTT, Invitrogen, Carlsbad, Calif.) reagent was added to media at a concentration of 0.5 mg/ml, and cells were incubated 2 hours at 37° C. in 5% CO2. […] Absorbance was measured using Tecan Infinite® M1000 Microplate Reader (San Jose, Calif.) at wavelength 570 nm (reference of 670 nm). Best-fit curves and IC50 values were calculated for concentration-response curves using GraphPad Prism software (GraphPad Inc., La Jolla, Calif.). Average IC50 values calculated from a minimum of three replicate experiments for each preparation.

[2] = Ex vivo imaging of doxorubicin accumulation in mouse heart; conditions: 40 min post administration
Experimental: FIG. 15. Ex vivo imaging of doxorubicin accumulation in mouse heart after liposomes were injected into the tail vein and allowed to circulate. Heart was removed after euthanasia to assess fluorescence. a) Doxorubicin fluorescence in hearts of mice injected with liposomal doxorubicin in lyso-temperature sensitive liposomes when Dox was loaded with ammonium sulfate method (ASDox-LTSLs) or loaded in liposomes containing 100 mM copper/270 mM TEA (CuDox-LTSLs), and loaded in temperature sensitive liposomes with 25% cholesterol containing 100 mM copper/270 mM TEA (CuDox-TSLs+25% chol) compared to those injected with free Dox. Animals were euthanized 40 min post administration of free or liposomal doxorubicin. Animals were perfused with saline and hearts were dissected prior to Maestro imaging. Statistical analyses were performed using one-way ANOVA followed by a Tukey Post Hoc test. *p<0.05, **p<0.01. Inset images of heart acquired by Maestro imaging system (white indicates higher doxorubicin fluorescence intensity).

[3] = system: NDL cells; test: Intracellular trafficking and subcellular localization of doxorubicin; format: cell-based; conditions: post incubation at 37° C.
[4] = mouse, in vivo

COc1cccc2c1C(=O)c1c(O)c3c(c(O)c1C2=O)C[C@@](O)(C(=O)CO)C[C@@H]3O[C@H]1C[C@H](N)[C@H](O)[C@H](C)O1.Cl [free doxorubicin, Doxorubicin hydrochloride]
IC50 [1]: 20 ± 10 nM
increase in cardiac accumulation of doxorubicin compared to liposomal copper-doxorubicin in temperature-sensitive liposomes [2]: 4 fold
time at which the nucleus showed doxorubicin fluorescence [3]: 15 min
skin fluorescence trend [4]: decreasing with time
